{"source": "the supplement of paper PMC10307832", "assay_in_all_cases": "relative viability (nuclei count vs DMSO), 5 days (fraction); higher = more cells survive", "key": {"[1]": {"compound": "CC1=CC(=CC=C1)NC2=NC(=CS2)C3=CC=NC=C3 + CS(=O)(=O)CCNCc1ccc(-c2ccc3ncnc(Nc4ccc(OCc5cccc(F)c5)c(Cl)c4)c3c2)o1 [Lapatinib] (partner 2 µM)", "procedure,_shortened": "(§1)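 Nuclei were stained with Hoechst during a one-step fixation (final 0.05% Triton X-100, 1% formaldehyde, 1 ug/ml Hoechst) carried out 5 days after dosing, then counted on 4× images. The cells, lung cancer lines in 1536-well plates, had been dosed by pin tool the day after seeding with one drug alone or a fixed anchor-drug dose plus five library-drug doses (not always all listed) in √10 steps. Relative viability is the nuclei count in treated wells divided by that in vehicle wells, and each value is the median of duplicate plates.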"}, "[2]": {"compound": "CC1=CC(=CC=C1)NC2=NC(=CS2)C3=CC=NC=C3 + COc1cccc2cc(-c3nc([C@H]4CC[C@H](C(=O)O)CC4)n4ncnc(N)c34)[nH]c12 [OSI-027] (partner 0.5 µM)", "procedure,_shortened": "as §1"}, "[3]": {"compound": "CC1=CC(=CC=C1)NC2=NC(=CS2)C3=CC=NC=C3 + O=C(CCCCCCC(=O)Nc1ccccc1)NO [Vorinostat] (partner 1 µM)", "procedure,_shortened": "as §1"}, "[4]": {"compound": "CC1=CC(=CC=C1)NC2=NC(=CS2)C3=CC=NC=C3 + Nc1nc2[nH]cc(CCc3ccc(C(=O)N[C@@H](CCC(=O)O)C(=O)O)cc3)c2c(=O)[nH]1 [Pemetrexed] (partner 0.2 µM)", "procedure,_shortened": "as §1"}}}
{"cell line": "UMC-11", "values": [{"measurement": "relative viability", "setting": "[1]; first compound 0.08 µM", "result": 0.839}, {"measurement": "relative viability", "setting": "[1]; first compound 0.253 µM", "result": 0.85}, {"measurement": "relative viability", "setting": "[1]; first compound 0.8 µM", "result": 0.885}, {"measurement": "relative viability", "setting": "[1]; first compound 2.53 µM", "result": 0.934}, {"measurement": "relative viability", "setting": "[1]; first compound 8 µM", "result": 1.02}, {"measurement": "relative viability", "setting": "[2]; first compound 0.08 µM", "result": 0.448}, {"measurement": "relative viability", "setting": "[2]; first compound 0.253 µM", "result": 0.512}, {"measurement": "relative viability", "setting": "[2]; first compound 0.8 µM", "result": 0.469}, {"measurement": "relative viability", "setting": "[2]; first compound 2.53 µM", "result": 0.461}, {"measurement": "relative viability", "setting": "[2]; first compound 8 µM", "result": 0.443}, {"measurement": "relative viability", "setting": "[3]; first compound 0.08 µM", "result": 0.356}, {"measurement": "relative viability", "setting": "[3]; first compound 0.253 µM", "result": 0.32}, {"measurement": "relative viability", "setting": "[3]; first compound 0.8 µM", "result": 0.354}, {"measurement": "relative viability", "setting": "[3]; first compound 2.53 µM", "result": 0.34}, {"measurement": "relative viability", "setting": "[3]; first compound 8 µM", "result": 0.487}, {"measurement": "relative viability", "setting": "[4]; first compound 0.08 µM", "result": 0.662}, {"measurement": "relative viability", "setting": "[4]; first compound 0.253 µM", "result": 0.802}, {"measurement": "relative viability", "setting": "[4]; first compound 0.8 µM", "result": 0.775}, {"measurement": "relative viability", "setting": "[4]; first compound 2.53 µM", "result": 0.834}, {"measurement": "relative viability", "setting": "[4]; first compound 8 µM", "result": 0.825}]}
